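Assay format: 96-well plates, 48-hour exposure. GI50 marks 50% less growth.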 The source made the active and inactive calls. No stated cut-off is given here; in the data, active = GI50 up to about 1.1 µM and inactive = higher.

Some test systems named below: UACC-257; HT-29; 786-0; A549; HL-60; SF-268; OVCAR-5; SF-295; A498; SK-OV-3; MDA-N; Hs-578T; COLO 205; M14; RXF 393; HOP-92; IGROV-1; RPMI-8226; LOX IMVI; K562.
Holding throughout (experiment): NCI-60 cell line screen, 48 h

Turning to `CCCCc1c(N(C)C)c(OC(C)=O)c(-c2cn(C)c3ccccc23)oc1=O`, the GI50 with UACC-257 is 22.5 µM (inactive); in the test with HT-29, 15.5 µM (inactive); with 786-0, 34.8 µM (inactive); with A549, 24.3 µM (inactive); in the test on HL-60, 17.7 µM (inactive); in the test with SF-268, 29.3 µM (inactive). The GI50 in the test on OVCAR-5 was 31.6 µM (inactive); with SF-295 it was 25.5 µM (inactive); with A498, 28.8 µM (inactive); in the test on SK-OV-3, 32.4 µM (inactive); in the test on MDA-N, 18.1 µM (inactive); with Hs-578T, 43 µM (inactive). Moreover, the GI50 is 19.1 µM (inactive) in the test with COLO 205, 16.8 µM (inactive) in the test with M14, 41 µM (inactive) with RXF 393 and < 0.01 µM (active) in the test with HOP-92.
As for `O=C1Nc2ccccc2/C1=C1\C(=O)Nc2ccccc21` [ISOINDIGO], the GI50 in the test with UACC-257 was 31.1 µM (inactive); in the test with HT-29, 4.98 µM (inactive); in the test on 786-0 it was 9.42 µM (inactive); with A549, 27.4 µM (inactive); in the test on IGROV-1, 10.3 µM (inactive); with SF-268, 31.2 µM (inactive). Further, the GI50 was 3.48 µM (inactive) in the test on OVCAR-5; 17.3 µM (inactive) in the test on RPMI-8226; 60.3 µM (inactive) with SF-295; 20.9 µM (inactive) in the test on A498; 59.7 µM (inactive) in the test with SK-OV-3; 24.5 µM (inactive) in the test on MDA-N. In addition, the GI50 in the test with Hs-578T was 49.2 µM (inactive); with COLO 205, 21.9 µM (inactive); with M14, 32.1 µM (inactive); in the test with LOX IMVI it was 18.6 µM (inactive); in the test with RXF 393 it was 3.56 µM (inactive); with HOP-92 it was 20.6 µM (inactive). Moreover, the GI50 in the test on K562 was 7.48 µM (inactive).
Regarding `CSc1nc(NC2CC2)c2c(n1)Sc1nc3ccccc3n1N=C2`, the GI50 in the test on UACC-257 is 41.3 µM (inactive); with HT-29 it was 26.3 µM (inactive); in the test on 786-0, 6.08 µM (inactive); in the test with A549, 18.7 µM (inactive); in the test with IGROV-1, 42.6 µM (inactive); in the test on SF-268, 17.1 µM (inactive). In addition, the GI50 in the test on OVCAR-5 was 37.2 µM (inactive); in the test on A498, 10.5 µM (inactive); with SK-OV-3, 26.5 µM (inactive); in the test with MDA-N it was 40.2 µM (inactive); in the test on Hs-578T it was 0.9 µM (active); with COLO 205, 41.9 µM (inactive). Besides, the GI50 in the test with M14 is 39.5 µM (inactive); in the test on LOX IMVI, 31.8 µM (inactive); in the test with HOP-92, 21 µM (inactive); in the test on K562 it was > 100 µM (inactive).
Consider `CCCCN/N=N/c1cn(C2OC(CO)C(O)C2O)c(=O)[nH]c1=O` (configuration not stated), for which the GI50 with UACC-257, in the test with HT-29, with 786-0, in the test with A549, with HL-60 and in the test on IGROV-1 was > 100 µM (inactive) each time. The GI50 in the test with SF-268, in the test on OVCAR-5, in the test with SF-295, in the test on A498, in the test with SK-OV-3 and in the test with MDA-N was > 100 µM (inactive) each time. Also, the GI50 with Hs-578T, in the test on COLO 205, in the test with M14, with LOX IMVI and with RXF 393 was > 100 µM (inactive) each time.
In the case of `Cc1ccc(S(=O)(=O)N2CCCSCCSCCCN(S(=O)(=O)c3ccc(C)cc3)CC2)cc1`, the GI50 in the test with UACC-257, with HT-29, in the test on 786-0, in the test on A549, with IGROV-1 and in the test on SF-268 was > 100 µM (inactive) throughout. In addition, the GI50 with OVCAR-5, in the test on RPMI-8226, with SF-295, with A498, with SK-OV-3 and with MDA-N was > 100 µM (inactive) throughout. Further, the GI50 in the test with Hs-578T, in the test on COLO 205, with M14 and in the test on RXF 393 was > 100 µM (inactive) each time.
Take `COCO[C@@H]1C[C@H]2C(=O)Nc3ccccc3C(=O)N2C1`: the GI50 in the test on UACC-257 is > 100 µM (inactive); in the test on HT-29, 85.3 µM (inactive); in the test on 786-0, > 100 µM (inactive); in the test on A549, > 100 µM (inactive); in the test on IGROV-1, 33 µM (inactive); in the test with SF-268, 36.4 µM (inactive). Moreover, the GI50 with OVCAR-5 is 61.5 µM (inactive); in the test on SF-295 it was 30.8 µM (inactive); in the test with A498, 38.5 µM (inactive); in the test with SK-OV-3 it was > 100 µM (inactive); with MDA-N, 39.2 µM (inactive); in the test on Hs-578T, 58.6 µM (inactive). The GI50 in the test with COLO 205 was 29.3 µM (inactive); with M14, > 100 µM (inactive); with LOX IMVI, 29.2 µM (inactive); in the test on RXF 393 it was 20.6 µM (inactive).
As to `O=C(NNC(=O)c1ccccc1O)c1cccs1`, the GI50 is > 100 µM (inactive) in the test on UACC-257; 33.3 µM (inactive) in the test on HT-29; > 100 µM (inactive) in the test with 786-0; 54.1 µM (inactive) in the test on A549; 50 µM (inactive) with HL-60; 30.7 µM (inactive) in the test on IGROV-1. Besides, the GI50 with SF-268 is 19 µM (inactive); in the test on OVCAR-5, 45 µM (inactive); in the test with RPMI-8226, > 100 µM (inactive); in the test with SF-295, 34.2 µM (inactive); with A498 it was > 100 µM (inactive); in the test with SK-OV-3, 24.4 µM (inactive). The GI50 with MDA-N is > 100 µM (inactive); in the test with Hs-578T, > 100 µM (inactive); in the test with COLO 205 it was 46.5 µM (inactive); with M14, 35.5 µM (inactive); in the test on LOX IMVI, 66.4 µM (inactive); with RXF 393, > 100 µM (inactive). The GI50 with K562 was > 100 µM (inactive).
For the compound `O=[N+]([O-])c1ccc(C2=NOC(c3ccccc3)N2C23CC4CC(CC(C4)C2)C3)cc1` (configuration not stated), the GI50 in the test on UACC-257 was 47.8 µM (inactive); in the test with HT-29, 21.3 µM (inactive); in the test on 786-0, 17.6 µM (inactive); in the test on A549 it was 32.9 µM (inactive); in the test on HL-60, 26.6 µM (inactive); in the test on IGROV-1, 24.8 µM (inactive). Also, the GI50 in the test with SF-268 is 59.6 µM (inactive); in the test with OVCAR-5, 14.4 µM (inactive); with RPMI-8226, > 10 µM (inactive); in the test on SF-295 it was 26.8 µM (inactive); with A498, > 100 µM (inactive); in the test with SK-OV-3, 43.2 µM (inactive). For the same compound, the GI50 was 26.7 µM (inactive) with MDA-N; 19.5 µM (inactive) in the test with Hs-578T; 30 µM (inactive) with COLO 205; 32.7 µM (inactive) in the test with M14; 15.9 µM (inactive) in the test on LOX IMVI; 19.1 µM (inactive) in the test on K562.
On to `O=C(O)C(Cc1c[nH]cn1)N1C(=O)c2ccccc2C1=O` (configuration not stated), for which the GI50 in the test on UACC-257, with HT-29, in the test with 786-0, with A549, in the test on IGROV-1 and with SF-268 was > 100 µM (inactive) each time. For the same compound, the GI50 is > 100 µM (inactive) with OVCAR-5; > 100 µM (inactive) with RPMI-8226; 30 µM (inactive) in the test on SF-295; > 100 µM (inactive) in the test with A498; > 100 µM (inactive) in the test on MDA-N; > 100 µM (inactive) in the test with Hs-578T. For the same compound, the GI50 with COLO 205, in the test with M14, in the test on LOX IMVI, in the test with RXF 393, with HOP-92 and in the test on K562 was > 100 µM (inactive) each time.
On to `COc1ccccc1Cn1nc(OC)c2cc([N+](=O)[O-])ccc21`, for which the GI50 with UACC-257 was > 74 µM (inactive); in the test on HT-29, > 100 µM (inactive); with 786-0, 11.6 µM (inactive); in the test with A549 it was 63.2 µM (inactive); with HL-60, > 100 µM (inactive); with IGROV-1 it was 34.8 µM (inactive). Further, the GI50 is 13.1 µM (inactive) in the test with SF-268; > 100 µM (inactive) with OVCAR-5; 6.3 µM (inactive) with SF-295; 26.9 µM (inactive) with A498; > 100 µM (inactive) in the test on MDA-N; 3.61 µM (inactive) in the test with Hs-578T. The GI50 in the test with COLO 205 is > 100 µM (inactive); in the test with M14, > 100 µM (inactive); in the test with LOX IMVI, > 100 µM (inactive); in the test on RXF 393 it was 1.88 µM (inactive); with HOP-92, 0.383 µM (active); with K562, > 100 µM (inactive).
As to `C/C(=N\c1c2ccccc2nc2ccccc12)N(C)C`, the GI50 in the test on UACC-257 is 16.9 µM (inactive); in the test on HT-29 it was 9.48 µM (inactive); with 786-0, 24.2 µM (inactive); with A549, 28.2 µM (inactive); in the test with HL-60, 3.28 µM (inactive); with IGROV-1 it was 23.9 µM (inactive). Moreover, the GI50 in the test with SF-268 was 27.4 µM (inactive); in the test on OVCAR-5, 20.5 µM (inactive); in the test with RPMI-8226, 13.6 µM (inactive); with SF-295 it was 14.8 µM (inactive); with SK-OV-3 it was 22.8 µM (inactive); with MDA-N it was 21.6 µM (inactive). Further, the GI50 with Hs-578T was 22 µM (inactive); in the test with COLO 205 it was 12.6 µM (inactive); in the test with M14 it was 11.5 µM (inactive); in the test with LOX IMVI, 11.6 µM (inactive); in the test with RXF 393, 23.8 µM (inactive); with HOP-92 it was 10.6 µM (inactive). For the same compound, in the test on K562, the GI50 is 3.91 µM (inactive).

For the origin of these results see ChEMBL document CHEMBL1201862, “PubChem BioAssay data set” (2004).
